Reference: patent publication US20230065158A1, “OXABICYCLOHEPTANES FOR TREATMENT OF SMALL CELL LUNG CANCER” (Lixte Biotechnology, Inc., priority 2021, published 2023)
Read-outs that look alike come from different tables or passages of the source.

Key:
H146 cells = experiment: Cell Counting Kit-8 cytotoxicity, H146
Source text: (§1) To determine specific cytotoxicity, we used Cell Counting Kit-8 (Dojindo Molecular Technologies, Rockville, Md.) as previously described (50).

H526 cells = experiment: Cell Counting Kit-8 cytotoxicity, H526
Source text: as §1

H524 cells = experiment: Seahorse XF Real-Time ATP rate assay, H524; format: cell-based; settings: LB100 2.5 μM, carboplatin 4 μM
Procedure: FIGS. 6A-6J depict ATP production rate in SCLC cells. FIG. 6A: H524 cells were treated with LB100 (2.5 μM), carboplatin (4 μM), or a combination, and ATP production rate was measured using the Agilent Seahorse XF Real Time ATP rate assay. mitoATP (mitochondrial) and glycoATP (glycolityc) rates were evaluated in H524 cells without and with drug treatments. […] FIG. 6B: Energetic map of H524 cells. After LB-100 and drug combination, cells became less glycolytic. FIGS. 6C-6E: The Agilent Seahorse XF pH sensor probe measures changes in the concentration of free protons, which corresponds to Extracellular Acidification Rate (ECAR). […] ATP level in cells was measured using the Agilent Seahorse XF Real Time ATP rate assay. […]
To elucidate the effect of the drugs on the glycolytic metabolism of H524 cells, we analyzed the proton efflux rate (PER). PER is calculated by subtracting acidification produced from mitochondrial CO2 production (Mitochondrial-derived CO2 can partially hydrate in the extracellular medium, resulting in additional extracellular acidification beyond that contributed by glycolysis) from total acidification or protons efflux (from both glycolysis and mitochondrial) into the extra cellular medium. […] To confirm that LB100 also affected glycolytic pathway in LB100-resistant cells, we measured PER in these cells. […]

H69 cells = experiment: Seahorse XF Real-Time ATP rate assay, H69; format: cell-based; settings: LB-100 10 μM, carboplatin 10 μM
H524 and H69 cells = experiment: Colony formation assay; format: cell-based; settings: both cell lines; H524/H69: LB-100 2.5/20 μM, carboplatin 4/20 μM, etoposide 3/30 μM
Procedure: A Mann-Whitney U test was used for comparison between the normal and SCLC samples. FIG. 1B: IHC for PP2A was conducted on TMA tissue sections and images were captured at 4× or 20× using a 3D-Histech PANNORAMIC SCAN whole slide scanner (3D-Histech, Budapest, Hungary). […] TMAs were scored in normal (n=24) and tumor (n=79) cores on a scale from 0 (no staining/no protein expression) to 3+(strong staining/high protein expression). FIG. 1C: Summary bar graph of the average PP2A subunit staining. IHC staining intensity of normal and tumor cores. […] FIG. 1D: In order to compare the expression of PP2A subunits A and C, cell lysates from seven SCLC cell lines and HBEC 3KT (non-malignant cell line) were subjected to western blotting. FIG. 1E: PP2A activity was determined using a serine/threonine phosphatase activity assay (Millipore) after 24 h exposure to cantharidin (10 μM) and LB-100 (5 μM). […] The Cell Counting Kit-8 assay detected cell H524 and H69 cell viability. […] FIGS. 1I-1K: Graphs depict the mean+SEM of percent viability for cells (n=3). Colony formation assays were used to count the ability of H524 (FIGS. 11 and 1J) and H69 (FIGS. 1K and 1L) cells to form colonies. […] Representative images of colonies at 4× are shown under the graph (n=2).*p<0.05; **, p<0.01; *** p<0.001; ****, p<0.0001. Experiments were repeated in triplicate and representative data are shown.

Row | SMILES | IC50 (H146 cells; Homo sapiens, NCI-H146, 72 h, read-out: Cytotoxicity IC50, H146) | IC50 (H526 cells; Homo sapiens, NCI-H526, 72 h, read-out: Cytotoxicity IC50, H526) | reduction of total ATP production rate compared to untreated cells (H524 cells) | drop of total ATP production rate (H69 cells) | colony formation (H524 and H69 cells) | IC50 (H146 cells; read-out: Cytotoxicity IC50, H146, 72 hours) | IC50 (H526 cells; read-out: Cytotoxicity IC50, H526, 72 hours)
1 | C[NH+]1CCN(C(=O)C2C(C(=O)O)[C@H]3CC[C@@H]2O3)CC1 (stereo in doubt) [LB-100, 3-[(4-Methylpiperazin-1-yl)carbonyl]-7-oxabicyclo[2.2.1]heptane-2-carboxylic acid] | ~20 µM | < 8 µM | 73.7% | 54% | significantly reduced colony formation | – | –
2 | N.N.O=C([O-])C1(C(=O)[O-])CCC1.[Pt+2] [Carboplatin, reference compound] | – | – | 36.3% | 12% | significantly reduced colony formation | 8.3 µM | 33.2 µM
